Test results from patent publication US20110160399A1, “HISTONE MODIFICATION INHIBITOR SPECIFIC TO TARGET GENE” (NIHON UNIVERSITY, priority 2008, published 2011).
Entries after “also recorded” stand apart in the source; their conditions may differ.

What was measured:
[1] = tested on: RKO (human large bowel cancer cell line); experiment: Cell proliferation assay (WST-8) on RKO cells; assay type: cell-based
Procedure: (§1) Next, the synthesized compounds were verified by WST-8 assay for their ability to suppress cancer cell proliferation.
(§2) Cell lines of HeLa (human uterine cervical cancer cell line), LOVO, RKO and SW480 (each of which was a human large bowel cancer cell line) were each cultured at 37° C. under 5% carbon dioxide conditions using Dulbecco's modified Eagle's medium (DMEM, Nacalai Tesque, Inc., Japan) supplemented with 10% fetal bovine serum (FBS: JRH bioscience, USA), antibiotics (50 U/ml penicillin and 50 μg/ml streptomycin) and 1 mM sodium pyruvate. Single-layered cells grown to 80-90% confluency on 10 cm cell culture dishes were washed with D-PBS(−) (Nacalai Tesque, Inc., Japan) and then released from the dishes by being treated with a phenol red-containing 2.5 g/L-Trypsine/1 mmol/L EDTA solution (Nacalai Tesque, Inc., Japan). The released cells were adjusted and maintained in fresh medium.
(§3) Each cell line seeded at 3×10^3 cells/well in a MICROTEST tissue culture plate (96 well, FALCON) was cultured at 37° C. under 5% carbon dioxide conditions for 24 hours, and then cultured in the presence of various concentrations of PI polyamide for an additional 72 hours. After completion of the culture, 10 μl of viable cell counting reagent SF (Nacalai Tesque, Inc., Japan) was added to each well and the absorbance at 450 nm was measured by ARVO EX (PerkinElmer). During the period from reagent addition until assay, incubation was continued at 37° C. in the presence of 5% CO2 until the absorbance reached about 1.2 to 2.0 in the control sample where only 50% DMSO was added to the cells.

[2] = tested on: HeLa (human uterine cervical cancer cell line); experiment: Cell proliferation assay (WST-8) on HeLa cells; assay type: cell-based; conditions: for suppression of HeLa cell proliferation: 72 hours, various concentrations
Procedure: as §1, §2, §3

[3] = tested on: SW480 (human large bowel cancer cell line); experiment: Cell proliferation assay (WST-8) on SW480 cells; assay type: cell-based; conditions: SW480, 72 hours, FIG. 4
Procedure: as §1
Cell lines of HeLa (human uterine cervical cancer cell line), LOVO, RKO and SW480 (each of which was a human large bowel cancer cell line) were each cultured at 37° C. under 5% carbon dioxide conditions using Dulbecco's modified Eagle's medium (DMEM, Nacalai Tesque, Inc., Japan) supplemented with 10% fetal bovine serum (FBS: JRH bioscience, USA), antibiotics (50 U/ml penicillin and 50 μg/ml streptomycin) and 1 mM sodium pyruvate. […]
as §3

[4] = tested on: p16 gene expression (p16 RNA); experiment: Real-time RT-PCR of p16 gene expression in HeLa cells; assay type: cell-based, human; conditions: 48 hours, even at 10 nM, GAPDH internal standard, FIG. 6
Procedure: To verify the effect on p16 gene expression, real-time RT-PCR was performed. HeLa cells seeded at 1.5×10^4 cells per well in 24-well plates were cultured for 48 hours in the presence of various concentrations of the polyamides, and RNA was then collected by ISOGEN (Nippon Gene Co., Ltd., Tokyo, Japan). The procedures used followed the manufacturer's instructions. The isolated total RNA was measured for its concentration with Nanodrop (Nanoprop, USA) and used for cDNA synthesis with a Primescript RT reagent kit (TAKARA BIO, Shiga, Japan). The prepared cDNA was confirmed for the expression level of p16 RNA in a Thermal Cycler Dice Real-time System TP-800 (TAKARA BIO, Shiga, Japan) with SYBR premix EX Tag (TAKARA BIO, Shiga, Japan). In this case, the following primers were used in PCR reaction for p16 amplification.
Likewise, for amplification of human endogenous glyceraldehyde-3-phosphate dehydrogenase (GAPDH) used as an internal standard, the following primers were used in PCR reaction.

[5] = tested on: p16 protein expression; experiment: Western blotting of p16 protein in HeLa cells; assay type: cell-based, human; conditions: 48 hours, various concentrations, α-tubulin internal standard, FIG. 7
Procedure: After being cultured for 48 hours in the presence of various concentrations of polyamide, HeLa cells were harvested and lysed again in an extraction buffer containing 20 mM Tris-HCl (pH 7.5), 150 mM NaCl, 1 mM EDTA, 1% Nonidet P-40 and Complete Protease Inhibitor Cocktail Tablets (Roche), and then centrifuged at 13,500×g at 4° C. for 15 minutes. The resulting supernatants were supplemented with a sample buffer solution (2ME+, ×4) (Wako Pure Chemical Industries, Ltd., Japan) to give samples. These samples were developed on a 15% polyacrylamide gel, electrically transferred to a polyvinylidene difluoride membrane (Millipore Corporation, USA), and then blocked with 5% skimmed milk for the purpose of preventing non-specific binding. The primary antibodies used for target protein detection were purified anti-human p16INK4 monoclonal antibody (BD bioscience) for p16 and α-tubulin (TU-02) (SANTA CRUZ) for α-tubulin used as an internal standard. […] After antibody labeling, the membrane was developed with Immobilon western (MILLIPORE) and then detected by Las-4000 mini (Fuji Photo Film Co., Ltd., Japan). The area and intensity of each band were determined by Multigauge (Fuji Photo Film Co., Ltd., Japan) and quantified in comparison with a 50% DMSO-treated control, which was set to 100%.

With `CN(C)CCCNC(=O)CCNC(=O)c1cc(NC(=O)c2nc(NC(=O)c3nc(NC(=O)CCNC(=O)c4cc(NC(=O)c5nc(NC(=O)CCCNC(=O)c6cc(NC(=O)c7nc(NC(=O)CCNC(=O)c8cc(NC(=O)c9cc(NC(=O)c%10nc(NC(=O)CCNC(=O)CCNC(=O)c%11ccc(NC(=O)CCCCCCC(=O)NO)cc%11)cn%10C)cn9C)cn8C)cn7C)cn6C)cn5C)cn4C)cn3C)cn2C)cn1C` [SAHA+p16 PIP, SAHA-ββImPyPyβImPyγImPyβImImPyβDp] as the molecule, how does the “suppression of RKO cell proliferation at 100 nM” value ([1]; 100 nM, 72 hours, FIG. 4) read?
Its value is “not suppressed”.

What about the “inhibition of RKO cell proliferation” value ([1]; 72 hours, WST-8, FIG. 4) of the same molecule?
Its value is “inhibit proliferation”.

And the “ability to suppress proliferation, compared among the 4 cancer cell lines (RKO)” value ([1]; FIG. 4, listed as p16 PIP attached to the SAHA derivative)?
The value was “high and lowest”.

And the “suppression of HeLa cell proliferation” value ([2]; WST-8, FIG. 3, FIG. 4)?
The value was “high antitumor effect”.

What about the “suppression of HeLa cell proliferation” value ([2]; WST-8, FIG. 3, FIG. 4, listed as p16 PIP attached to the SAHA derivative) of the same molecule?
The value was “proliferation inhibition; also recorded: inhibit proliferation”.

And the “ability to suppress proliferation, compared among the 4 cancer cell lines (HeLa)” value ([2]; FIG. 4)?
Its value is “high”.

And the “inhibition of SW480 cell proliferation” value [3]?
Its value is “inhibit proliferation”.

What about the “expression level of p16 at the transcription level” value [4] of the same molecule?
The value was “significant increase”.

What about the “expression of p16 at the protein level” value [5] of the same molecule?
Its value is “enhanced the expression”.
